{"source": "patent US20080124413A1", "about": "“NOVEL COMPOSITION CONTAINING EXTRACTS OF BUTYROSPERMUM PARKII AND THE USE OF SUCH A COMPOSITION FOR PREPARING A MEDICAMENT OR A DIETARY SUPPLEMENT FOR THE TREATMENT OR PREVENTION OF INFLAMMATION […] OR PAIN” (BSP Pharma A/S, priority 1999, published 2008)", "key": {"[1]": {"tested_on": "BALB/c mouse arthritis induced by collagen mono-clonal antibody (mAb) and lipopolysaccharide", "format": "in vivo", "details": "cyclophosphamide 10 mg/kg x3 orally, p<0.05 Wilcoxon", "protocol": "BPC was dissolved in 100% corn oil. […] Dosing volume was 5 ml/kg.\nIn this study, male BALB/c mice weighing 20±1 grams were used. Space allocation for 5 mice was 45×23×15 cm. The animals were housed in APEC® (Allentown Gaging, Allentown, N.J. 08501, U.S.A.) cages and maintained in a hygienic environment under controlled temperature (22° C.-24° C.) and humidity (60%-80%) with 12-hours light/dark cycles for at least one week prior to being used. Free access to standard lab chow for mice and tap water was granted. All aspects of this work including housing, experimentation and disposal of animals were performed in general according to the International Guiding Principles for Biomedical Research Involving Animals (CIOMS Publication No. ISBN 92 90360194, 1985).\nThe study was performed according to the method of Terato et al. (Autoimmunity, 22:137-147, 1995).\nGroups of 5 BALB/c mice, 6-8 weeks of age, were used for the induction of arthritis by monoclonal antibodies (mAbs) and lipopolysaccharide (LPS). […] This was followed by intravenous 25 μg of LPS 72 hours later (day 3). From day 3, test substances were administered orally once daily for 3 consecutive days. At day 5, one or two paws (particularly the hind) began to appear red and swollen, and from day 7, arthritis symptoms of the two hind paws became severely red and swollen in untreated mice. A plethysmometer (Ugo Basile Cat # 7150) with water cell (12 mm diameter) was used for the measurement of increase in both hind paw volumes at day 7, 10, 14 and 17. The percent of inhibition of increased paw volume was calculated as follows:\nInhibition (%): [1−(Tn−To)/(Cn−Co)]×100\nCo (Cn): Volume of day 0 (day n) in vehicle control (both hind paws summed)\nTo (Tn): Volume of day 0 (day n) in test compound-treated group (both hind paws summed)\nWilcoxon rank sum test for paired differences was used for comparing swelling in the test compound treated groups with swelling in the control group."}, "[2]": {"tested_on": "rat", "details": "The Merck Index; cited from earlier work"}}, "note": "Read-outs that look alike come from different tables or passages of the source.", "data": [{"smiles": "O=P1(N(CCCl)CCCl)NCCCO1", "note": "(stereo not shown) [cyclophosphamide]", "values": [{"measurement": "reduction of hind paw edema relative to the vehicle-treated control group", "setting": "[1]; day 10", "value": 79, "unit": "%"}, {"measurement": "reduction of hind paw edema relative to the vehicle-treated control group", "setting": "[1]; day 14", "value": 91, "unit": "%"}, {"measurement": "reduction of hind paw edema relative to the vehicle-treated control group", "setting": "[1]; day 17", "value": 90, "unit": "%"}, {"measurement": "LD50", "setting": "[2]", "value": 94, "unit": "mg/kg"}]}]}
